Assays:
[1] = Solubility in distilled water or 1% SDS; format: physicochemical
Protocol: 10 mg of weighed Crude extract I obtained in Example 1 was added to 1 ml of distilled water or 1 ml of 1% sodium dodecyl sulfate (SDS) aqueous solution and was stirred vigorously. The solution was centrifuged at 5,000×g for 2 min and the concentrations of conophylline and conophyllidine in the supernatant were measured.

[2] = Crude extract II absorption test in GK rats; format: in vivo, rat; details: Crude extract II 4.3 or 13 mg/kg, 1.5-24 h
Protocol: Sixteen 10-week old GK rats were divided into four groups (n=4 per group). Two groups (the fasted groups) were fasted for 16 hours, and the remaining two groups (the fed groups) were allowed ad libitum access to chow and water. The fed groups received Crude extract II (containing Tween 80) at 4.3 mg/kg or 13 mg/kg. Blood was taken at 1.5, 3, 6, 12, and 24 hours post administration and plasma conophylline concentration was measured. Likewise, the fasted groups also received Crude extract II and plasma conophylline concentration was measured.

[3] = tested on: model animals of neonatal diabetes; details: intraperitoneally administered; cited from earlier work

Row | Compound | concentration in supernatant ([1]; 10 mg Crude extract I in 1 ml 1% SDS) | concentration in supernatant ([1]; 10 mg Crude extract I in 1 ml Distilled water) | blood (plasma) conophylline concentration, fasted vs fed groups [2] | blood glucose levels [3]
1 | CC[C@@]12C=CCN3CC[C@]4(C(=C(C(=O)OC)C1)Nc1cc5c(cc14)[C@H]1[C@@H](O5)[C@H](O)[C@]4(CC)CC(C(=O)OC)=C5Nc6c(cc(O)c(OC)c6OC)[C@@]56CCN1[C@H]46)[C@H]32 (stereo in doubt) [Conophyllidine, conophyllidine] | 2970 ng/mL | 680 ng/mL | – | –
2 | CC[C@@]12CC(C(=O)OC)=C3Nc4cc5c(cc4[C@@]34CCN(C[C@H]3O[C@H]31)[C@@H]24)[C@@H]1[C@H](O5)[C@@H](O)[C@@]2(CC)CC(C(=O)OC)=C3Nc4c(cc(O)c(OC)c4OC)[C@@]34CCN1[C@@H]24 [Conophylline, conophylline] | – | – | slightly higher in the fasted groups, but no significant difference | significantly suppressing increased blood glucose levels

Source: patent publication US8178135B2, “Aqueous solution of conophylline and/or conophyllidine” (Keio University, priority 2006, dated 2012)
